Drawing on patent US10517961B2, “Drug formulation based on particulates comprising polysaccharide-vitamin conjugate” (ZY Therapeutics, Inc., priority 2015, dated 2019), this text covers IC50 for one molecule.

For the experiment, the system named is human non-small lung cancer cells. Nature of the experiment: In vitro cytotoxicity. Type of experiment: cell-based. The conditions noted are these: 72 hrs, cell survival ratio.

As to `CC(=O)O[C@H]1C(=O)[C@@]2(C)[C@H]([C@H](OC(=O)c3ccccc3)[C@]3(O)C[C@H](OC(=O)[C@H](O)[C@@H](NC(=O)c4ccccc4)c4ccccc4)C(C)=C1C3(C)C)[C@]1(OC(C)=O)CO[C@@H]1C[C@@H]2O` [paclitaxel], the IC50 is ~0.01 µM.

One may read the IC50 as the midpoint of a concentration-inhibition curve.
